Read-outs that look alike come from different tables or passages of the source.
Experiments:
[1] = tested on: fetal hemoglobin gene HBG1; assay: HBG1 Nanostring Assay in CD34+ HSPC erythroid differentiation culture; format: cell-based, human; details: for Nanostring Ymax obs (%): relative to a control compound (C1); for EC50: Homo sapiens, 240 h, HBG1 induction, Day10 of erythroid differentiation
Method: A Nanostring Assay was performed to evaluate the ability of the compounds to induce expression of the fetal hemoglobin gene HBG1 in cells. The data are shown as EC50, with stronger inducers having a lower EC50 value and higher YMax.
Forty eight hours later (day −2), the cells were passaged at a density of 200,000 cells/ml (100 ul/well in 96well culture plate) in complete expantion media. The cells were plated at 200,000 cells/ml on day 0 and day 3, 400,000 cells/ml on day 5 in phase 1 erythroid differentiation containing StemSpan with 2.5 U/mL of EPO (R&D systems, 287-TC-500), 0.5 mg/mL of Holo-Transferrin (Sigma, T0665-500MG), 1× Glutamine (Gluta-Max) (Gibco, 35050-061), 5 μL/mL Lipid Mixture (Sigma, L0288-100ML), 50 ng/mL SCF (R&D Systems, 255-SV-050), 10 ng/mL IL-3 (R&D Systems, 203-IL010) and 10 ng/mL Insulin (Sigma, I9278-5ML) all 200 μl per well in 96 well culture plate. Cells were then passaged at 500,000 cells/ml and 200 μl per well on day 7 in phase 2 Erythroid differentiation (Phase 1 erythroid differentiation removing IL-3) until collection day (Day10). The culture conditions were used for both control DMSO as well as experimental treatments.
For all cell pasagings, cells were centrifuged at 300 g for 8 minutes at room temperature and cell number were normalized by MANTIS and Integra VIAFLO 384. All the compounds are diluted in DMSO and added to complete media by Formulatrix FAST and mixed starting from day −2. Cells were counted by Luna cell counter with AOPI Staining Solution (Nexcelom Bioscience, CS2-0106-25 mL) on day-2. Cells were counted by BD FACSCelesta Flow Cytometer with CountBright™ Plus Absolute Counting Beads (Thermal Fisher Scientific, C36995) and SYTOX AADvanced™ Ready Flow™ Reagent (Invitrogen, R37173) for other passages. Cells were cultured at 37° C. and 5% CO2. DMSO concentration was kept at 0.1% to minimize any effects to the cells by the vehicle. […] Compound plates were kept at room temperature to protect from light to avoid multiple freeze and thaw cycle.
On the collection day (Day10), 100K cells were collected and stored at −80° C. For direct hybridization for Nanostring, 100K cell pellet was lyzed in 25 μL of RLT (QIAGEN, 79216) with 1×β-Mercaptoethanol (Gibco, 21985-023) and shaked at 300-500 RPM for 5 minutes at room temperature. Cell lysate was stored in −80° C. after lysis.
All hybridizations were done in a total volume of 15 μL (3 μL of RNA lysate added to master mix of 12 μL probe A/B, capture probe/reporter probes, proteinase K and attenuation oligos suspended in hybridization buffer). Samples were hybridized at 67° C. for 22 hr. Following hybridization, the tripartide complexes were purified, immobilized by nCounter Prep Station and imaged by Digital Analyzer (nCounter MAX/FLEX Analysis System), to generate digital counts of barcodes corresponding to each target in the multiplexed reaction. Labeled barcodes obtained from unamplified extracts were counted at 555 images or field of view (FOV). The barcode counts for each sample were recorded in Reporter Code Count (RCC) files that are imported into nSolver analysis software (provided with CodeSet by NS) for quality control evaluation.
The quality control (QC) metric included limit of detection QC by checking for wells with less than 100 total counts for positive controls.
Hybridization signals were normalized against the ERCC positive controls and CodeSet Content (housekeeping gene). Briefly, this involved first calculating a sample-specific scaling factor by calculating arithmetic mean of geomeans of all ERCC positive controls with counts more than zero in all samples. Then this arithmetic mean was divided by the geometric mean of each lane to generate a lane-specific normalization factor. All negative controls and target-specific signal values were then normalized by multiplying counts values with their sample-specific scaling factor. The acceptable range for scaling factors is 0.3-3.0. […]

[2] = molecular target: DCN1 (DCUND1) protein PONY domain (Homo sapiens (Human), UniProt Q96GG9); assay: TR-FRET assay, DCN1 binding with FAM-labeled probe
DCN1 (DCUND1) protein PONY domain, sequence (Q96GG9 60-248): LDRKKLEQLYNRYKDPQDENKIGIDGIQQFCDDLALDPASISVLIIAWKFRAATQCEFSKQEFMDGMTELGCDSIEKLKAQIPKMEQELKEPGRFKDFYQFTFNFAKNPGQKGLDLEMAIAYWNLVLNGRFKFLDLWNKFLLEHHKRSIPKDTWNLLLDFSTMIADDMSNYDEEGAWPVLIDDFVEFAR
Method in brief: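 Biotinylated DCN1 PONY domain, labeled with streptavidin-Tb, was competed against a FAM-labeled non-covalent DCN1 inhibitor probe in buffer with TritonX and 200 mM NaCl. Conditions were 5 nM DCN1 with 20 nM FAM-probe, or 0.31 nM DCN1 with 100 nM FAM-plus 800 nM unlabeled probe. The TR-FRET ratio was read at 1, 5 and 24 h (0.1% DMSO).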

[3] = tested on: Cullin-3 (CUL3) neddylation; assay: AlphaLISA assay for Cullin-3 (CUL3) neddylation in TF 1 cells; format: cell-based; details: Homo sapiens, TF-1, 3 h, 3 hours treatment
Method in brief: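 Neddylated CUL3 was quantified by AlphaLISA in lysates of TF 1 cells exposed for 3 h to test compound in IMDM without supplements. Percent inhibition set between vehicle and 1 μM DI-1548 positive control; IC50 derived by Hill-equation fitting of dose-response curves.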

[4] = 24 hr after treatment with compound, read-out: TR FRET IC50 24 hr
[5] = read-out: TR FRET IC50 1 hr, 1 hr after treatment with compound
[6] = TR FRET IC50 1 hr (nM), 1 hr after treatment with compound

With `C=C(CN1CC2CC1C2)C(=O)NCc1nn(-c2ccccc2)c2c1[C@H](c1ccc(F)cc1)[C@H](NC(=O)c1cccc(C(F)(F)F)c1)C(=O)N2CC` (mixture of isomers) [Compound I-456] the “Nanostring Ymax obs (%)” value [1] was “++ (Nanostring Ymax greater than 50.0 and less than or equal to 100.0)”, the IC50 [2, 4] was no more than 200 nM and the IC50 [2, 5] was no more than 200 nM. The IC50 [3] was no more than 100 nM.
With `C=C(CN1CC2(CCC2O)C1)C(=O)NCc1nn(-c2ccccc2)c2c1[C@H](c1ccc(F)cc1)[C@H](NC(=O)c1cccc(C(F)(F)F)c1)C(=O)N2CC` (mixture of isomers) [Compound I-458] the “Nanostring Ymax obs (%)” value [1] was “++ (Nanostring Ymax greater than 50.0 and less than or equal to 100.0)”, the IC50 [2, 4] was no more than 200 nM and the IC50 [2, 5] was no more than 200 nM. For the same compound, the IC50 [3] was no more than 100 nM.
With `C=C(CN1C2COCC1C2)C(=O)NCc1nn(-c2ccccc2)c2c1[C@H](c1ccc(F)cc1)[C@H](NC(=O)c1cccc(C(F)(F)F)c1)C(=O)N2CC` (mixture of isomers) [Compound I-573] the “Nanostring Ymax obs (%)” value [1] was “++ (Nanostring Ymax greater than 50.0 and less than or equal to 100.0)”, the IC50 [2, 4] was no more than 200 nM and the IC50 [2, 5] was no more than 200 nM. The IC50 [3] was no more than 100 nM.
For `CCN1C(=O)[C@@H](NC(=O)c2cccc(C(F)(F)F)c2)[C@@H](c2ccc(F)cc2)c2c([C@H](CCO)NC#N)nn(-c3ccccc3)c21` (mixture of isomers) [Compound I-576], the EC50 [1] was greater than 1000 nM, the “Nanostring Ymax obs (%)” value [1] was “+ (Nanostring Ymax greater than or equal to 0.0 and less than or equal to 50.0)” and the IC50 [2, 4] was no more than 200 nM. It also gave an IC50 [2, 6] of 200 to 1000 nM and an IC50 [3] of no more than 100 nM.
With `C=C(CN1C2CCC1COC2)C(=O)NCc1nn(-c2ccccc2)c2c1[C@H](c1ccc(F)cc1)[C@H](NC(=O)c1cccc(C(F)(F)F)c1)C(=O)N2CC` (mixture of isomers) [Compound I-613] the “Nanostring Ymax obs (%)” value [1] was “+++ (Nanostring Ymax greater than 100.0)”, the IC50 [2, 4] was no more than 200 nM and the IC50 [2, 5] was no more than 200 nM. For the same compound, the IC50 [3] was no more than 100 nM.
In the case of `C=C(CN1CCN(C2COC2)CC1)C(=O)NCc1nn(-c2ccccc2)c2c1[C@@H](c1ccc(F)cc1)[C@H](NC(=O)c1cccc(C(F)(F)F)c1)C(=O)N2CC` (racemic) [Compound I-40], the “Nanostring Ymax obs (%)” value [1] is reported as “++ (Nanostring Ymax greater than 50.0 and less than or equal to 100.0)”, the IC50 [2, 4] is reported as no more than 200 nM and the IC50 [2, 5] is reported as no more than 200 nM. For the same compound, the IC50 [3] was no more than 100 nM.
With `C=C(CN(C)C1COC1)C(=O)NCc1nn(-c2ccccc2)c2c1[C@H](c1ccc(F)cc1)[C@H](NC(=O)c1cccc(C(F)(F)F)c1)C(=O)N2CC` (racemic) [Compound I-102] the “Nanostring Ymax obs (%)” value [1] was “++ (Nanostring Ymax greater than 50.0 and less than or equal to 100.0)”, the IC50 [2, 4] was no more than 200 nM and the IC50 [2, 5] was no more than 200 nM. It also gave an IC50 [3] of no more than 100 nM.
For `CCN1C(=O)[C@@H](NC(=O)c2cccc(C(F)(F)F)c2)[C@@H](c2ccc(F)cc2)c2c(CNC/C=C/C(=O)OC)nn(-c3ccccc3)c21` (racemic) [Compound I-127, rac-methyl I-4-((((4R,5R)-7-ethyl-4-(4-fluorophenyl)-6-oxo-1-phenyl-5-(3-(trifluoromethyl)benzamido)-4,5,6,7-tetrahydro-1H-pyrazolo[3,4-b]pyridine-3-yl)methyl)amino)but-2-enoate], the EC50 [1] was 100 to 1000 nM, the “Nanostring Ymax obs (%)” value [1] was “++ (Nanostring Ymax greater than 50.0 and less than or equal to 100.0)” and the IC50 [2, 4] was no more than 200 nM. The IC50 [2, 6] was no more than 200 nM and the IC50 [3] was no more than 100 nM.
`CCN1C(=O)[C@@H](NC(=O)c2cccc(C(F)(F)F)c2)[C@@H](c2ccc(F)cc2)c2c(CN(C#N)CCCO)nn(-c3ccccc3)c21` (racemic) [Compound I-246, N-[rac-(4S,5S)-3-[[cyano(3-hydroxypropyl)amino]methyl]-7-ethyl-4-(4-fluorophenyl)-6-oxo-1-phenyl-4,5-dihydropyrazolo[3,4-b]pyridine-5-yl]-3-(trifluoromethyl)benzamide] was tested, and the EC50 [1] was greater than 1000 nM, the “Nanostring Ymax obs (%)” value [1] was “++ (Nanostring Ymax greater than 50.0 and less than or equal to 100.0)” and the IC50 [2, 4] was 200 to 1000 nM. For the same compound, the IC50 [2, 6] was 200 to 1000 nM and the IC50 [3] was 100 to 1000 nM.
For `CCN1C(=O)[C@@H](NC(=O)c2cccc(C(F)(F)F)c2)[C@@H](c2ccc(F)cc2)c2c(CN(C)C/C=C/C(=O)OC)nn(-c3ccccc3)c21` (racemic) [Compound I-250, rac-methyl I-4-((((4R,5R)-7-ethyl-4-(4-fluorophenyl)-6-oxo-1-phenyl-5-(3-(trifluoromethyl)benzamido)-4,5,6,7-tetrahydro-1H-pyrazolo[3,4-b]pyridine-3-yl)methyl)(methyl)amino)but-2-enoate], the EC50 [1] was greater than 1000 nM, the “Nanostring Ymax obs (%)” value [1] was “++ (Nanostring Ymax greater than 50.0 and less than or equal to 100.0)” and the IC50 [2, 4] was no more than 200 nM. It also gave an IC50 [2, 6] of 200 to 1000 nM and an IC50 [3] of no more than 100 nM.
With `C=C(CN(C)C1COC1)C(=O)NCc1nn(-c2ccccc2)c2c1[C@@H](c1ccc(F)cc1)[C@H](NC(=O)c1cccc(C(F)(F)F)c1)C(=O)N2CC` (racemic) [Compound I-491] the EC50 [1] was no more than 100 nM, the “Nanostring Ymax obs (%)” value [1] was “++ (Nanostring Ymax greater than 50.0 and less than or equal to 100.0)” and the IC50 [2, 4] was no more than 200 nM. For the same compound, the IC50 [2, 6] was 200 to 1000 nM and the IC50 [3] was no more than 100 nM.
For `C=C(CN1CCC1)C(=O)NCc1nn(-c2ccccc2)c2c1[C@H](c1ccc(F)cc1)[C@H](NC(=O)c1cccc(C(F)(F)F)c1)C(=O)N2CC` [Compound I-2], the “Nanostring Ymax obs (%)” value [1] was “++ (Nanostring Ymax greater than 50.0 and less than or equal to 100.0)”, the IC50 [2, 4] was no more than 200 nM and the IC50 [2, 5] was no more than 200 nM. It also gave an IC50 [3] of no more than 100 nM.
`CCN1C(=O)[C@@H](NC(=O)c2cccc(C(F)(F)F)c2)[C@@H](c2ccc(F)cc2)c2c(CN(C#N)CCCN(C)C)nn(-c3ccccc3)c21` [Compound I-247, ˜{N}-[(4˜{S},5˜{S})-3-[[cyano-[3-(dimethylamino)propyl]amino]methyl]-7-ethyl-4-(4-fluorophenyl)-6-oxo-1-phenyl-4,5-dihydropyrazolo[3,4-b]pyridine-5-yl]-3-(trifluoromethyl)benzamide] was tested, and the EC50 [1] was greater than 1000 nM, the “Nanostring Ymax obs (%)” value [1] was “++ (Nanostring Ymax greater than 50.0 and less than or equal to 100.0)” and the IC50 [2, 4] was no more than 200 nM. It also gave an IC50 [2, 5] of no more than 200 nM and an IC50 [3] of no more than 100 nM.
In the case of `CCN1C(=O)[C@@H](NC(=O)c2cccc(C(F)(F)F)c2)[C@@H](c2ccc(F)cc2)c2c(CN(C#N)CCCCN(C)C)nn(-c3ccccc3)c21` [Compound I-248, ˜{N}-[(4˜{S},5˜{S})-3-[[cyano-[4-(dimethylamino)butyl]amino]methyl]-7-ethyl-4-(4-fluorophenyl)-6-oxo-1-phenyl-4,5-dihydropyrazolo[3,4-b]pyridine-5-yl]-3-(trifluoromethyl)benzamide], the “Nanostring Ymax obs (%)” value [1] is reported as “++ (Nanostring Ymax greater than 50.0 and less than or equal to 100.0)”, the IC50 [2, 4] is reported as no more than 200 nM and the IC50 [2, 6] is reported as 200 to 1000 nM. The IC50 [3] was no more than 100 nM.

Source: US20250163057A1, “DCN-1 MODULATING COMPOUNDS AND METHODS OF USE THEREOF” (Cellarity, Inc., priority 2023, published 2025)
